The numbers were not newly measured in US6756047B2, “Method and compositions for treating persistent pulmonary hypertension using aralkyl ester soft drugs” (The University of Toledo, priority 2000, dated 2004), which cites them from elsewhere.

For data set [1] the following is noted: long duration of action; used clinically.
For data set [2] the following is noted: eye examination use.

For `CC(C)NCC(O)COc1cccc2ccccc12` (centres unmarked) [Structure 1, propranolol], in data set [1], the “half-life (duration of action)” value is “several hour”.

As for `CN1[C@@H]2CC[C@H]1C[C@@H](OC(=O)C(CO)c1ccccc1)C2` (some centres unmarked) [Atropine, atropine], the duration result in data set [2] is given as “several hour”.
